{"source": "patent US11292821B2", "about": "“Peptides and combination of peptides for use in immunotherapy against lung cancer, including NSCLC, SCLC and other cancers” (Immatics Biotechnologies GmbH, priority 2017, dated 2022)", "data": [{"system": "HLA-A*01", "experiment": "MHC binding assay (UV-ligand exchange, β2m ELISA)", "set-up": "species or system human", "from_the_text": "Candidate peptides for T cell based therapies according to the present invention were further tested for their MHC binding capacity (affinity). The individual peptide-MHC complexes were produced by UV-ligand exchange, where a UV-sensitive peptide is cleaved upon UV-irradiation, and exchanged with the peptide of interest as analyzed. Only peptide candidates that can effectively bind and stabilize the peptide-receptive MHC molecules prevent dissociation of the MHC complexes. To determine the yield of the exchange reaction, an ELISA was performed based on the detection of the light chain (β2m) of stabilized MHC complexes. The assay was performed as generally described in Rodenko et al. (Rodenko et al., 2006).\n96 well MAXISorp plates (NUNC) were coated over night with 2 ug/ml streptavidin in PBS at room temperature, washed 4× and blocked for 1 h at 37° C. in 2% BSA containing blocking buffer. […] Peptide-MHC monomers of the UV-exchange reaction were diluted 100-fold in blocking buffer. Samples were incubated for 1 h at 37° C., washed four times, incubated with 2 ug/ml HRP conjugated anti-β2m for 1h at 37° C., washed again and detected with TMB solution that is stopped with […]. Absorption was measured at 450 nm. Candidate peptides that show a high exchange yield (preferably higher than 50%, most preferred higher than 75%) are generally preferred for a generation and production of antibodies or fragments thereof, and/or T cell receptors or fragments thereof, as they show sufficient avidity to the MHC molecules and prevent dissociation of the MHC complexes.", "values": [{"substance": "423 (NLDAVHDITVAY; listed as Homo sapiens) [compound 423]", "Peptide exchange (peptide exchange yield, MHC class I binding score)": "“++++” (>75% = ++++)"}, {"substance": "406 (ETEQTKFWDY; listed as Homo sapiens) [compound 406]", "Peptide exchange (peptide exchange yield, MHC class I binding score)": "“++++” (>75% = ++++)"}, {"substance": "408 (FTEQWTDGY; listed as Homo sapiens) [compound 408]", "Peptide exchange (peptide exchange yield, MHC class I binding score)": "“+++” (>50 = +++)"}, {"substance": "439 (TLDAGKFQIY; listed as Homo sapiens) [compound 439]", "Peptide exchange (peptide exchange yield, MHC class I binding score)": "“+++” (>50 = +++)"}, {"substance": "134 (AAEIGDKSWLY; listed as Homo sapiens) [compound 134]", "Peptide exchange (peptide exchange yield, MHC class I binding score)": "“++++” (>75% = ++++)"}, {"substance": "198 (YLDPVQRDLY; listed as Homo sapiens) [compound 198]", "Peptide exchange (peptide exchange yield, MHC class I binding score)": "“++++” (>75% = ++++)"}, {"substance": "421 (LTELLERAAFY; listed as Homo sapiens) [compound 421]", "Peptide exchange (peptide exchange yield, MHC class I binding score)": "“++++” (>75% = ++++)"}, {"substance": "141 (ESDVGVVVY; listed as Homo sapiens) [compound 141]", "Peptide exchange (peptide exchange yield, MHC class I binding score)": "“+++” (>50 = +++)"}, {"substance": "157 (LMDRPIFY; listed as Homo sapiens) [compound 157]", "Peptide exchange (peptide exchange yield, MHC class I binding score)": "“++++” (>75% = ++++)"}, {"substance": "168 (QTDHPQPILDRY; listed as Homo sapiens) [compound 168]", "Peptide exchange (peptide exchange yield, MHC class I binding score)": "“++++” (>75% = ++++)"}, {"substance": "397 (ASEITSKGASLY; listed as Homo sapiens) [compound 397]", "Peptide exchange (peptide exchange yield, MHC class I binding score)": "“++++” (>75% = ++++)"}, {"substance": "135 (ASEDSVLLY; listed as Homo sapiens) [compound 135]", "Peptide exchange (peptide exchange yield, MHC class I binding score)": "“++++” (>75% = ++++)"}, {"substance": "165 (NTDPTAPPY; listed as Homo sapiens) [compound 165]", "Peptide exchange (peptide exchange yield, MHC class I binding score)": "“+++” (>50 = +++)"}, {"substance": "161 (LVDDGTHGQY; listed as Homo sapiens) [compound 161]", "Peptide exchange (peptide exchange yield, MHC class I binding score)": "“+++” (>50 = +++)"}, {"substance": "410 (GSDHQSPSSSSY; listed as Homo sapiens) [compound 410]", "Peptide exchange (peptide exchange yield, MHC class I binding score)": "“++++” (>75% = ++++)"}, {"substance": "420 (LTEDKETLQY; listed as Homo sapiens) [compound 420]", "Peptide exchange (peptide exchange yield, MHC class I binding score)": "“++++” (>75% = ++++)"}, {"substance": "191 (VTDGSLYEGVAY; listed as Homo sapiens) [compound 191]", "Peptide exchange (peptide exchange yield, MHC class I binding score)": "“++++” (>75% = ++++)"}, {"substance": "139 (ECDMAFHIY; listed as Homo sapiens) [compound 139]", "Peptide exchange (peptide exchange yield, MHC class I binding score)": "“++++” (>75% = ++++)"}, {"substance": "412 (ILDEVIMGY; listed as Homo sapiens) [compound 412]", "Peptide exchange (peptide exchange yield, MHC class I binding score)": "“++++” (>75% = ++++)"}, {"substance": "147 (GSSDSSTLPKL; listed as Homo sapiens) [compound 147]", "Peptide exchange (peptide exchange yield, MHC class I binding score)": "“++” (>20% = ++)"}, {"substance": "170 (RSDDTAVYY; listed as Homo sapiens) [compound 170]", "Peptide exchange (peptide exchange yield, MHC class I binding score)": "“++++” (>75% = ++++)"}, {"substance": "440 (TLDENPGVRY; listed as Homo sapiens) [compound 440]", "Peptide exchange (peptide exchange yield, MHC class I binding score)": "“+++” (>50 = +++)"}, {"substance": "142 (EVAEPSVLFDLY; listed as Homo sapiens) [compound 142]", "Peptide exchange (peptide exchange yield, MHC class I binding score)": "“+++” (>50 = +++)"}, {"substance": "186 (TTDIIEKY; listed as Homo sapiens) [compound 186]", "Peptide exchange (peptide exchange yield, MHC class I binding score)": "“+++” (>50 = +++)"}, {"substance": "431 (NTSDMMGRMSY; listed as Homo sapiens) [compound 431]", "Peptide exchange (peptide exchange yield, MHC class I binding score)": "“++++” (>75% = ++++)"}, {"substance": "155 (LLDPNPHMY; listed as Homo sapiens) [compound 155]", "Peptide exchange (peptide exchange yield, MHC class I binding score)": "“++++” (>75% = ++++)"}, {"substance": "150 (GTELLSLVY; listed as Homo sapiens) [compound 150]", "Peptide exchange (peptide exchange yield, MHC class I binding score)": "“++++” (>75% = ++++)"}, {"substance": "179 (STAKSATWTY; listed as Homo sapiens) [compound 179]", "Peptide exchange (peptide exchange yield, MHC class I binding score)": "“++++” (>75% = ++++)"}, {"substance": "415 (LLDPRSYHTY; listed as Homo sapiens) [compound 415]", "Peptide exchange (peptide exchange yield, MHC class I binding score)": "“+++” (>50 = +++)"}, {"substance": "197 (YADTVRPEFY; listed as Homo sapiens) [compound 197]", "Peptide exchange (peptide exchange yield, MHC class I binding score)": "“+++” (>50 = +++)"}, {"substance": "194 (VVADTKMIEY; listed as Homo sapiens) [compound 194]", "Peptide exchange (peptide exchange yield, MHC class I binding score)": "“+” (>10% = +)"}, {"substance": "414 (KTDESLTKY; listed as Homo sapiens) [compound 414]", "Peptide exchange (peptide exchange yield, MHC class I binding score)": "“+++” (>50 = +++)"}, {"substance": "442 (TSDFSRFTNY; listed as Homo sapiens) [compound 442]", "Peptide exchange (peptide exchange yield, MHC class I binding score)": "“++++” (>75% = ++++)"}, {"substance": "411 (GTVYEDLRY; listed as Homo sapiens) [compound 411]", "Peptide exchange (peptide exchange yield, MHC class I binding score)": "“++++” (>75% = ++++)"}, {"substance": "413 (ISDRYYTALY; listed as Homo sapiens) [compound 413]", "Peptide exchange (peptide exchange yield, MHC class I binding score)": "“++++” (>75% = ++++)"}, {"substance": "419 (LSELKPMSY; listed as Homo sapiens) [compound 419]", "Peptide exchange (peptide exchange yield, MHC class I binding score)": "“++++” (>75% = ++++)"}, {"substance": "188 (VSDAKLDKY; listed as Homo sapiens) [compound 188]", "Peptide exchange (peptide exchange yield, MHC class I binding score)": "“+++” (>50 = +++)"}, {"substance": "409 (FVDPLVTNY; listed as Homo sapiens) [compound 409]", "Peptide exchange (peptide exchange yield, MHC class I binding score)": "“++++” (>75% = ++++)"}, {"substance": "444 (TTDTVIRSY; listed as Homo sapiens) [compound 444]", "Peptide exchange (peptide exchange yield, MHC class I binding score)": "“+++” (>50 = +++)"}, {"substance": "154 (LLDISQKNLY; listed as Homo sapiens) [compound 154]", "Peptide exchange (peptide exchange yield, MHC class I binding score)": "“+++” (>50 = +++)"}, {"substance": "448 (YLDIPNPRY; listed as Homo sapiens) [compound 448]", "Peptide exchange (peptide exchange yield, MHC class I binding score)": "“+++” (>50 = +++)"}, {"substance": "200 (YSDEDVTKY; listed as Homo sapiens) [compound 200]", "Peptide exchange (peptide exchange yield, MHC class I binding score)": "“++++” (>75% = ++++)"}, {"substance": "450 (YSDDGQKWTVY; listed as Homo sapiens) [compound 450]", "Peptide exchange (peptide exchange yield, MHC class I binding score)": "“++++” (>75% = ++++)"}, {"substance": "433 (QIDTGENLY; listed as Homo sapiens) [compound 433]", "Peptide exchange (peptide exchange yield, MHC class I binding score)": "“++++” (>75% = ++++)"}, {"substance": "167 (QSDPGTSVLGY; listed as Homo sapiens) [compound 167]", "Peptide exchange (peptide exchange yield, MHC class I binding score)": "“+++” (>50 = +++)"}, {"substance": "401 (DSDESYMEKSLY; listed as Homo sapiens) [compound 401]", "Peptide exchange (peptide exchange yield, MHC class I binding score)": "“++++” (>75% = ++++)"}, {"substance": "183 (TLEDIATSHLY; listed as Homo sapiens) [compound 183]", "Peptide exchange (peptide exchange yield, MHC class I binding score)": "“++++” (>75% = ++++)"}, {"substance": "426 (NLDQATRVAY; listed as Homo sapiens) [compound 426]", "Peptide exchange (peptide exchange yield, MHC class I binding score)": "“+++” (>50 = +++)"}, {"substance": "438 (STDNFNCKY; listed as Homo sapiens) [compound 438]", "Peptide exchange (peptide exchange yield, MHC class I binding score)": "“+++” (>50 = +++)"}, {"substance": "416 (LLDTAQKNLY; listed as Homo sapiens) [compound 416]", "Peptide exchange (peptide exchange yield, MHC class I binding score)": "“++++” (>75% = ++++)"}, {"substance": "146 (GLNTGSALSY; listed as Homo sapiens) [compound 146]", "Peptide exchange (peptide exchange yield, MHC class I binding score)": "“++” (>20% = ++)"}, {"substance": "177 (SSDEVNFLVY; listed as Homo sapiens) [compound 177]", "Peptide exchange (peptide exchange yield, MHC class I binding score)": "“++++” (>75% = ++++)"}, {"substance": "402 (DTDSQRLAY; listed as Homo sapiens) [compound 402]", "Peptide exchange (peptide exchange yield, MHC class I binding score)": "“+++” (>50 = +++)"}, {"substance": "137 (ATSKFMEFY; listed as Homo sapiens) [compound 137]", "Peptide exchange (peptide exchange yield, MHC class I binding score)": "“++++” (>75% = ++++)"}, {"substance": "437 (STDGKHWWEY; listed as Homo sapiens) [compound 437]", "Peptide exchange (peptide exchange yield, MHC class I binding score)": "“++++” (>75% = ++++)"}, {"substance": "400 (ATDISRQNEY; listed as Homo sapiens) [compound 400]", "Peptide exchange (peptide exchange yield, MHC class I binding score)": "“+++” (>50 = +++)"}, {"substance": "190 (VTDGINPLIDRY; listed as Homo sapiens) [compound 190]", "Peptide exchange (peptide exchange yield, MHC class I binding score)": "“+++” (>50 = +++)"}]}]}
